Assay results as given in patent publication US9302999B2, “Substituted triazoles as herbicides” (E. I. DU PONT DE NEMOURS AND COMPANY, priority 2012, dated 2016).

Legend:
[1] = system: Barnyardgrass; assay: Test C postemergence: barnyardgrass; format: in vivo, Echinochloa crus-galli
In short: (§1)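 Greenhouse pot test; foliar postemergence treatment at 1- to 4-leaf stage. Rated visually at 13 to 15 days on a 0–100 control scale relative to untreated plants.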

[2] = system: galium (catchweed bedstraw, Galium aparine); assay: Test C pre-/postemergence: galium; format: in vivo
In short: (§2)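 Preemergence on seeds in loam/sand, postemergence on 2–18 cm (1–4-leaf) plants in peat-based medium; compounds in non-phytotoxic solvent with surfactant. After 13–15 days in greenhouse, visual rating versus controls, 0 (no effect) to 100 (complete control).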

[3] = system: rice (Oryza sativa); assay: Test B flooded paddy: rice; format: in vivo; details: Flood; 250 g ai/ha; applied to paddy water at 2-leaf stage; visually evaluated after 13 to 15 days
In short: (§3)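 Response scored visually, 0–100 relative to controls, 13–15 days after the compound was applied into paddy water; plants were at the 2-leaf stage in pots kept flooded to 3 cm.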

[4] = system: corn (Zea mays); assay: Test C pre-/postemergence: corn; format: in vivo
In short: as §2

[5] = system: Waterhemp; assay: Test C pre-/postemergence: waterhemp; format: in vivo; details: Preemergence, 250 g ai/ha; scale 0 to 100, 0 no effect, 100 complete control
Text: (§4) Seeds of plant species selected from blackgrass (Alopecurus myosuroides), bromegrass, downy (downy bromegrass, Bromus tectorum), foxtail, green (green foxtail, Setaria viridis), ryegrass, Italian (Italian ryegrass, Lolium multiflorum), winter wheat (Triticum aestivum), wild oat (Avena fatua), galium (catchweed bedstraw, Galium aparine), bermudagrass (Cynodon dactylon), surinam grass (Brachiaria decumbens), cocklebur (common cocklebur, Xanthium strumarium), corn (Zea mays), large crabgrass (Digitaria sanguinalis), woolly cupgrass (Eriochloa villosa), foxtail, giant (giant foxtail, Setaria faberii), goosegrass (Eleusine indica), johnsongrass (Sorghum halepense), kochia (Kochia scoparia), lambsquarters (Chenopodium album), morningglory (Ipomoea coccinea), nightshade (eastern black nightshade, Solanum ptycanthum), nutsedge, yellow (yellow nutsedge, Cyperus esculentus), pigweed (Amaranthus retroflexus), ragweed (common ragweed, Ambrosia elation), soybean (Glycine max), common (oilseed) sunflower (Helianthus annuus), Russian thistle (Salsola kali) and velvetleaf (Abutilon theophrasti) were planted into a blend of loam soil and sand and treated preemergence with test chemicals formulated in a non-phytotoxic solvent mixture which included a surfactant.
At the same time, plants selected from these crop and weed species and also barley (winter barley, Hordeum vulgare), canarygrass (Phalaris minor), chickweed (common chickweed, Stellaria media) windgrass (Apera spica-venti) and deadnettle (henbit deadnettle, Lamium amplexicaule) were planted in pots containing Redi-Earth® planting medium (Scotts Company, 14111 Scottslawn Road, Marysville, Ohio 43041) comprising spaghnum peat moss, vermiculite, wetting agent and starter nutrients and treated with postemergence applications of test chemicals formulated in the same manner. Plants ranged in height from 2 to 18 cm (1- to 4-leaf stage) for postemergence treatments.
(§5) Treated plants and controls were maintained in a greenhouse for 13 to 15 days, after which time all species were compared to controls and visually evaluated. Plant response ratings, summarized in Table C, are based on a scale of 0 to 100 where 0 is no effect and 100 is complete control. A dash (-) response means no test result.

[6] = system: winter wheat (Triticum aestivum); assay: Test C pre-/postemergence: winter wheat; format: in vivo
In short: as §2

[7] = system: velvetleaf (Abutilon theophrasti); assay: Test C pre-/postemergence: velvetleaf; format: in vivo
In short: as §2

[8] = system: sedge, umbrella (small-flower umbrella sedge Cyperus difformis); assay: Test B flooded paddy: sedge, umbrella; format: in vivo; details: Flood; 250 g ai/ha; applied to paddy water at 2-leaf stage; visually evaluated after 13 to 15 days
In short: as §3

[9] = system: Oilseed Rape; assay: Test C preemergence: oilseed rape; format: in vivo; details: scale of 0 to 100, 0 is no effect, 100 is complete control
Text: as §4, §5

[10] = system: Waterhemp; assay: Test C postemergence: waterhemp; format: in vivo
In short: as §1

[11] = system: morningglory (Ipomoea coccinea); assay: Test C pre-/postemergence: morningglory; format: in vivo
In short: as §2

[12] = system: lambsquarters (Chenopodium album); assay: Test C pre-/postemergence: lambsquarters; format: in vivo
In short: as §2

[13] = 31 g ai/ha, scale 0 to 100 (0 no effect, 100 complete control)
[14] = 62 g ai/ha, scale 0 to 100 (0 no effect, 100 complete control)
[15] = Postemergence, 31 g ai/ha, scale 0 to 100 (0 no effect, 100 complete control)
[16] = Postemergence, 62 g ai/ha, scale 0 to 100 (0 no effect, 100 complete control)
[17] = Postemergence, 125 g ai/ha, scale 0 to 100, 0 no effect, 100 complete control
[18] = Postemergence, 250 g ai/ha, scale 0 to 100
[19] = Preemergence, 31 g ai/ha, scale of 0 to 100, 0 is no effect, 100 is complete control
[20] = Preemergence, 62 g ai/ha, scale of 0 to 100, 0 is no effect, 100 is complete control
[21] = Preemergence, 125 g ai/ha, scale 0 to 100, 0 no effect, 100 complete control
[22] = Preemergence, 250 g ai/ha, scale 0 to 100, 0 no effect, 100 complete control

CCc1nn(-c2ccc(F)cc2)nc1Cc1ccnc(C(F)(F)F)c1 [Compound 154]
Plant response rating, Barnyardgrass [1, 13]: 15
Plant response rating, Barnyardgrass [1, 14]: 25
Plant response rating, Barnyardgrass ([1]; 250 g ai/ha, scale 0 to 100): 40
Plant response rating, Galium [2, 15]: 45
Plant response rating, Galium [2, 16]: 60
Plant response rating, Galium [2, 17]: 70
Plant response rating, Galium [2, 18]: 75
Plant response rating, Galium [2, 19]: 5
Plant response rating, Galium [2, 20]: 85
Plant response rating, Galium [2, 21]: 85
Plant response rating, Galium [2, 22]: 100
Plant response rating, Rice (0 to 100 scale, 0 is no effect, 100 is complete control) [3]: 45
Plant response rating, Corn [4, 15]: 20
Plant response rating, Corn [4, 16]: 20
Plant response rating, Corn [4, 18]: 20
Plant response rating, Corn [4, 19]: 0
Plant response rating, Corn [4, 20]: 5
Plant response rating, Corn [4, 21]: 10
Plant response rating, Corn [4, 22]: 15
Plant response rating, Waterhemp [5]: 100
Plant response rating, Wheat [6, 15]: 10
Plant response rating, Wheat [6, 16]: 15
Plant response rating, Wheat [6, 17]: 20
Plant response rating, Wheat [6, 18]: 30
Plant response rating, Wheat [6, 20]: 5
Plant response rating, Wheat [6, 21]: 5
Plant response rating, Wheat [6, 22]: 55
Plant response rating, Velvetleaf [7, 15]: 35
Plant response rating, Velvetleaf [7, 16]: 45
Plant response rating, Velvetleaf [7, 17]: 55
Plant response rating, Velvetleaf [7, 18]: 65
Plant response rating, Velvetleaf [7, 19]: 5
Plant response rating, Velvetleaf [7, 20]: 45
Plant response rating, Velvetleaf [7, 21]: 90
Plant response rating, Velvetleaf [7, 22]: 100
Plant response rating, Sedge, Umbrella (0 to 100 scale, 0 is no effect, 100 is complete control) [8]: 80
Plant response rating, Oilseed Rape ([9]; 31 g ai/ha): 5
Plant response rating, Oilseed Rape ([9]; 62 g ai/ha): 90
Plant response rating, Waterhemp [10, 13]: 90
Plant response rating, Waterhemp [10, 14]: 98
Plant response rating, Waterhemp ([10]; 250 g ai/ha, scale 0 to 100): 98
Plant response rating, Morningglory [11, 15]: 40
Plant response rating, Morningglory [11, 16]: 75
Plant response rating, Morningglory [11, 17]: 75
Plant response rating, Morningglory [11, 18]: 98
Plant response rating, Morningglory [11, 19]: 0
Plant response rating, Morningglory [11, 20]: 5
Plant response rating, Morningglory [11, 21]: 5
Plant response rating, Morningglory [11, 22]: 25
Plant response rating, Lambsquarters [12, 15]: 75
Plant response rating, Lambsquarters [12, 16]: 98
Plant response rating, Lambsquarters [12, 17]: 98
Plant response rating, Lambsquarters [12, 18]: 98
Plant response rating, Lambsquarters [12, 19]: 100
Plant response rating, Lambsquarters [12, 20]: 100
Plant response rating, Lambsquarters [12, 21]: 100
Plant response rating, Lambsquarters [12, 22]: 100

CCc1nn(-c2ccc(C(F)(F)F)cc2)nc1Cc1ccnc(C(F)(F)F)c1 [Compound 155]
Plant response rating, Barnyardgrass [1, 13]: 25
Plant response rating, Barnyardgrass [1, 14]: 35
Plant response rating, Barnyardgrass ([1]; 250 g ai/ha, scale 0 to 100): 75
Plant response rating, Galium [2, 15]: 70
Plant response rating, Galium [2, 16]: 75
Plant response rating, Galium [2, 17]: 80
Plant response rating, Galium [2, 18]: 95
Plant response rating, Galium [2, 19]: 98
Plant response rating, Galium [2, 20]: 100
Plant response rating, Galium [2, 21]: 100
Plant response rating, Galium [2, 22]: 100
Plant response rating, Rice (0 to 100 scale, 0 is no effect, 100 is complete control) [3]: 50
Plant response rating, Corn [4, 15]: 25
Plant response rating, Corn [4, 16]: 25
Plant response rating, Corn [4, 17]: 45
Plant response rating, Corn [4, 18]: 45
Plant response rating, Corn [4, 19]: 5
Plant response rating, Corn [4, 20]: 5
Plant response rating, Corn [4, 21]: 10
Plant response rating, Corn [4, 22]: 45
Plant response rating, Waterhemp [5]: 100
Plant response rating, Wheat [6, 15]: 15
Plant response rating, Wheat [6, 16]: 30
Plant response rating, Wheat [6, 17]: 35
Plant response rating, Wheat [6, 18]: 40
Plant response rating, Wheat [6, 20]: 5
Plant response rating, Wheat [6, 21]: 10
Plant response rating, Wheat [6, 22]: 35
Plant response rating, Velvetleaf [7, 15]: 50
Plant response rating, Velvetleaf [7, 16]: 60
Plant response rating, Velvetleaf [7, 17]: 75
Plant response rating, Velvetleaf [7, 18]: 80
Plant response rating, Velvetleaf [7, 19]: 30
Plant response rating, Velvetleaf [7, 20]: 80
Plant response rating, Velvetleaf [7, 21]: 85
Plant response rating, Velvetleaf [7, 22]: 100
Plant response rating, Sedge, Umbrella (0 to 100 scale, 0 is no effect, 100 is complete control) [8]: 80
Plant response rating, Oilseed Rape ([9]; 31 g ai/ha): 50
Plant response rating, Oilseed Rape ([9]; 62 g ai/ha): 90
Plant response rating, Waterhemp [10, 13]: 98
Plant response rating, Waterhemp [10, 14]: 98
Plant response rating, Waterhemp ([10]; 250 g ai/ha, scale 0 to 100): 98
Plant response rating, Morningglory [11, 15]: 55
Plant response rating, Morningglory [11, 16]: 65
Plant response rating, Morningglory [11, 17]: 65
Plant response rating, Morningglory [11, 18]: 98
Plant response rating, Morningglory [11, 19]: 10
Plant response rating, Morningglory [11, 20]: 40
Plant response rating, Morningglory [11, 21]: 60
Plant response rating, Morningglory [11, 22]: 90
Plant response rating, Lambsquarters [12, 15]: 80
Plant response rating, Lambsquarters [12, 16]: 95
Plant response rating, Lambsquarters [12, 17]: 98
Plant response rating, Lambsquarters [12, 18]: 98
Plant response rating, Lambsquarters [12, 19]: 90
Plant response rating, Lambsquarters [12, 20]: 100
Plant response rating, Lambsquarters [12, 21]: 100
Plant response rating, Lambsquarters [12, 22]: 100
